For this assay, the target named is PARP7 (Homo sapiens (Human), UniProt Q7Z3E1). The assay can be described thus: Enzymatic assay for inhibition of PARP7: TR-FRET displacement of biotinylated Probe A from the TIPARP active site. It counts as binding. The settings on record: Table A-1. The procedure: 20 nL of a dose response curve of each test compound was spotted in black 384-well polystyrene proxiplates (Perkin Elmer) using a Mosquito (TTP Labtech). […] Reactions were incubated at 25° C. for an additional 30 min, then read on an Envision platereader equipped with a LANCE/DELFIA top mirror (Perkin Elmer) using excitation of 320 nm and emission of 615 nm and […] with a 90 μs delay. The ratio of the 665/615 nm emission were calculated for each well to determine the amount of complex of TIPARP and Probe A in each well. […] The Hill Coefficient is normally allowed to float but may also be fixed at 1 in a 3-parameter fit. Y is the % inhibition and x is the compound concentration.
Sequence of PARP7 (Q7Z3E1 whole entry): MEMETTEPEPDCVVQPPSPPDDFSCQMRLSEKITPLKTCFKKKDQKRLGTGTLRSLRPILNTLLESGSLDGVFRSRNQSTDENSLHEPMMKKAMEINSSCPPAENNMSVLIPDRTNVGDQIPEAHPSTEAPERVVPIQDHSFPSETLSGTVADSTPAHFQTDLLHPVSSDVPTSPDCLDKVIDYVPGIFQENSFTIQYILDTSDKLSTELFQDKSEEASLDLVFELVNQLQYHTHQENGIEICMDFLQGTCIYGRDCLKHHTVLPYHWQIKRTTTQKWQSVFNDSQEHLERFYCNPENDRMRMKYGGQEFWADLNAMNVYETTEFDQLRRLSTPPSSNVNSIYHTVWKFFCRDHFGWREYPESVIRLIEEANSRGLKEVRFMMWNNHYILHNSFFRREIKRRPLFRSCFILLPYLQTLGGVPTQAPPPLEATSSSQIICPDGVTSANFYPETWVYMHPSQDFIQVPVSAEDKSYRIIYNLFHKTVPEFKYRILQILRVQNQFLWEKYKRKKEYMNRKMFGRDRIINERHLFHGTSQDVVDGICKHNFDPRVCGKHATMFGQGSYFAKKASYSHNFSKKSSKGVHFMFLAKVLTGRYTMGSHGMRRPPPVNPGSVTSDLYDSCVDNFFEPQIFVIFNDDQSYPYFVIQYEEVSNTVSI

The text below walks through data of patent US10550105B2 (Ribon Therapeutics Inc., priority 2018, dated 2020).

pIC50: −log10 of the molar value.

In general, pIC50 refers to the negative decadic logarithm of the IC50, by convention in mol/L. Higher therefore signals a low IC50.

For “6-(4-[3-[(2R)-2-[[6-Oxo-5-(trifluoromethyl)-1,6-dihydropyridazin-4-yl]amino]-2-phenylethoxy]propanoyl]piperazin-1-yl)pyridine-3-carbonitrile [Example 515A]”, the pIC50 is at most 6.00.

For the molecule “6-[4-(3-[[(1S,2S)-1-[[6-Oxo-5-(trifluoromethyl)-1-[[2-(trimethylsilyl)ethoxy]methyl]-1,6-dihydropyridazin-4-yl]amino]-2,3-dihydro-1H-inden-2-yl]oxy]propanoyl)piperazin-1-yl]pyridine-3-carbonitrile [Example 537 Isomer A]”, the pIC50 is at most 6.00.

`COC[C@@H](COCCC(=O)N1CCN(c2ncc(Cl)cn2)CC1)Oc1cn[nH]c(=O)c1C(F)(F)F` (single isomer, unassigned) [listing 1 of 2 here] showed a pIC50 of over 7.00.

Molecule `COC[C@H](COCCC(=O)N1CCN(c2ncc(Cl)cn2)CC1)Oc1cn[nH]c(=O)c1C(F)(F)F` (single isomer, unassigned) gave a pIC50 of 6.00 to 7.00.

In the case of `COC[C@@H](COCCC(=O)N1CCN(c2ncc(Cl)cn2)CC1)Oc1cn[nH]c(=O)c1C(F)(F)F` (single isomer, unassigned) [listing 2 of 2 here], the pIC50 is over 7.00.

In the case of `N#Cc1ccc(N2CCN(C(=O)c3cccc(OC[C@H]4c5ccccc5CN4c4cn[nH]c(=O)c4C(F)(F)F)c3)CC2)nc1` (single isomer, unassigned) [Example 18 Isomer A], the pIC50 is 6.00 to 7.00.

Take `O=C(c1cccc(OC[C@H]2c3ccccc3CN2c2cn[nH]c(=O)c2C(F)(F)F)c1)N1CCN(c2ccc(C(F)(F)F)cn2)CC1` (single isomer, unassigned) [Example 30 Isomer A]: the pIC50 was at most 6.00.

The molecule `O=C(c1cccc(OC[C@@H]2c3ccccc3CN2c2cn[nH]c(=O)c2C(F)(F)F)c1)N1CCN(c2ccc(C(F)(F)F)cn2)CC1` (single isomer, unassigned) [Example 30 Isomer B] gave a negative-log IC50 (pIC50) of over 7.00.

As to `N#Cc1ccc(N2CCN(C(=O)c3ccc(OC[C@@H]4c5ccccc5CN4c4cn[nH]c(=O)c4C(F)(F)F)cc3)CC2)nc1` (single isomer, unassigned) [Example 35 Isomer A], the pIC50 is at most 6.00.

In turn, `N#Cc1ccc(N2CCN(C(=O)c3ccc(OC[C@H]4c5ccccc5CN4c4cn[nH]c(=O)c4C(F)(F)F)cc3)CC2)nc1` (single isomer, unassigned) [Example 35 Isomer B] had a pIC50 of 6.00 to 7.00.

`N#Cc1ccc(N2CCN(C(=O)c3ccnc(OC[C@@H]4c5ccccc5CN4c4cn[nH]c(=O)c4C(F)(F)F)c3)CC2)nc1` (single isomer, unassigned) [Example 36 Isomer B]: the pIC50 was over 7.00.

`N#Cc1ccc(N2CCN(C(=O)c3ccnc(OC[C@@H]4c5ccccc5CN4c4cn[nH]c(=O)c4C(F)(F)F)n3)CC2)nc1` (single isomer, unassigned) [Example 38 Isomer A] gave a pIC50 of over 7.00.

`N#Cc1ccc(N2CCN(C(=O)[C@@H]3CNC[C@@H](OC[C@@H]4CCCN4c4cn[nH]c(=O)c4C(F)(F)F)C3)CC2)nc1` (single isomer, unassigned) [Example 56 Isomer A] showed a pIC50 of over 7.00.

`N#Cc1ccc(N2CCN(C(=O)[C@H]3CNC[C@H](OC[C@@H]4CCCN4c4cn[nH]c(=O)c4C(F)(F)F)C3)CC2)nc1` (single isomer, unassigned) [Example 56 Isomer B] showed a pIC50 of 6.00 to 7.00.

In turn, `N#Cc1ccc(N2CCN(C(=O)[C@H]3CCC[C@H](OC[C@@H]4CCCN4c4cn[nH]c(=O)c4C(F)(F)F)C3)CC2)nc1` (single isomer, unassigned) [Example 57 Isomer A] showed a pIC50 of 6.00 to 7.00.

For the molecule `N#Cc1ccc(N2CCN(C(=O)[C@@H]3CCC[C@@H](OC[C@@H]4CCCN4c4cn[nH]c(=O)c4C(F)(F)F)C3)CC2)nc1` (single isomer, unassigned) [Example 57 Isomer B], the pIC50 was over 7.00.

For the molecule `N#Cc1ccc(N2CCN(C(=O)[C@H]3CCC[C@@H](OC[C@@H]4CCCN4c4cn[nH]c(=O)c4C(F)(F)F)C3)CC2)nc1` (single isomer, unassigned) [Example 57 Isomer C], the pIC50 was 6.00 to 7.00.

For `N#Cc1ccc(N2CCN(C(=O)[C@@H]3CCC[C@H](OC[C@@H]4CCCN4c4cn[nH]c(=O)c4C(F)(F)F)C3)CC2)nc1` (single isomer, unassigned) [Example 57 Isomer D], the pIC50 was 6.00 to 7.00.

`N#Cc1cnc(N2CCN(C(=O)c3cc(OC[C@H]4c5ccccc5CN4c4cn[nH]c(=O)c4C(F)(F)F)ccn3)CC2)nc1` (single isomer, unassigned) [Example 64 Isomer A]: the pIC50 is at most 6.00.

Molecule `N#Cc1cnc(N2CCN(C(=O)c3cc(OC[C@@H]4c5ccccc5CN4c4cn[nH]c(=O)c4C(F)(F)F)ccn3)CC2)nc1` (single isomer, unassigned) [Example 64 Isomer B] showed a pIC50 of over 7.00.

The molecule `N#Cc1ccc(N2CCN(C(=O)c3cncc(OC[C@@H]4c5ccccc5CN4c4cn[nH]c(=O)c4C(F)(F)F)n3)CC2)nc1` (single isomer, unassigned) [Example 72 Isomer A] gave a negative-log IC50 (pIC50) of over 7.00.

`N#Cc1ccc(N2CCN(C(=O)CCOC[C@H]3c4ccccc4CN3c3cn[nH]c(=O)c3C(F)(F)F)CC2)nc1` (single isomer, unassigned) [Example 93 Isomer B] had a pIC50 of 6.00 to 7.00.

Molecule `C[C@H](COC[C@@H]1CCCN1c1cn[nH]c(=O)c1C(F)(F)F)C(=O)N1CCN(c2ccc(C#N)cn2)CC1` (single isomer, unassigned) [Example 94 Isomer A] had a pIC50 of over 7.00.

Turning to `C[C@@H](COC[C@@H]1CCCN1c1cn[nH]c(=O)c1C(F)(F)F)C(=O)N1CCN(c2ccc(C#N)cn2)CC1` (single isomer, unassigned) [Example 94 Isomer B], the pIC50 was over 7.00.

In turn, `N#Cc1ccc(N2CCN(C(=O)C/C=C\OC[C@@H]3CCCN3c3cn[nH]c(=O)c3C(F)(F)F)CC2)nc1` (single isomer, unassigned) [Example 96 Isomer A] gave a pIC50 of over 7.00.

Turning to `N#Cc1ccc(N2CCN(C(=O)/C=C/COC[C@@H]3CCCN3c3cn[nH]c(=O)c3C(F)(F)F)CC2)nc1` (single isomer, unassigned) [Example 96 Isomer B], the pIC50 was over 7.00.

`O=C(C[C@@H]1CC[C@H]([C@@H]2CCCN2c2cn[nH]c(=O)c2C(F)(F)F)O1)N1CCN(c2ncc(Cl)cn2)CC1` (single isomer, unassigned) [Example 147C] gave a pIC50 of 6.00 to 7.00.

`O=c1[nH]ncc(N2Cc3cccc(OC[C@@H]4CCCO4)c3C2)c1C(F)(F)F` (single isomer, unassigned) [Example 222] showed a pIC50 of over 7.00.

The molecule `COC[C@H](COCCC(=O)N1CCN(c2ccc(C#N)cn2)CC1)Nc1cn[nH]c(=O)c1C(F)(F)F` (single isomer, unassigned) [Example 518A] had a pIC50 of at most 6.00.

`COC[C@@H](COCCC(=O)N1CCN(c2ccc(C#N)cn2)CC1)Nc1cn[nH]c(=O)c1C(F)(F)F` (single isomer, unassigned) [Example 518B] had a negative-log IC50 (pIC50) of over 7.00.

On to `COC[C@@H](COCCC(=O)N1CCN(c2ccc(C#N)cn2)CC1)Oc1cn[nH]c(=O)c1C(F)(F)F` (single isomer, unassigned) [Example 532 Isomer A], for which the pIC50 is over 7.00.

The molecule `COC[C@H](COCCC(=O)N1CCN(c2ccc(C#N)cn2)CC1)Oc1cn[nH]c(=O)c1C(F)(F)F` (single isomer, unassigned) [Example 532 Isomer B] gave a pIC50 of 6.00 to 7.00.

Molecule `N#Cc1ccc(N2CCN(C(=O)CCO[C@@H]3Cc4ccccc4[C@H]3Nc3cn[nH]c(=O)c3C(F)(F)F)CC2)nc1` (single isomer, unassigned) [Example 537 Isomer B] gave a negative-log IC50 (pIC50) of over 7.00.

Turning to `C[C@H](CC(=O)N1CCN(c2ccc(C#N)cn2)CC1)OCCOc1cn[nH]c(=O)c1C(F)(F)F` (single isomer, unassigned) [Example 538 Isomer A], the pIC50 is 6.00 to 7.00.

`C[C@@H](CC(=O)N1CCN(c2ccc(C#N)cn2)CC1)OCCOc1cn[nH]c(=O)c1C(F)(F)F` (single isomer, unassigned) [Example 538 Isomer B]: the pIC50 was over 7.00.

Molecule `C[C@@H](COCCC(=O)N1CCN(c2ccc(Cl)cn2)CC1)Oc1cn[nH]c(=O)c1C(F)(F)F` (single isomer, unassigned) [Example 539 Isomer A] gave a pIC50 of over 7.00.

For `C[C@@H](COc1cn[nH]c(=O)c1C(F)(F)F)OCCC(=O)N1CCN(c2ccc(Cl)cn2)CC1` (single isomer, unassigned) [Example 539 Isomer B], the pIC50 was 6.00 to 7.00.

On to `C[C@H](COc1cn[nH]c(=O)c1C(F)(F)F)OCCC(=O)N1CCN(c2ccc(Cl)cn2)CC1` (single isomer, unassigned) [Example 539 Isomer C], for which the pIC50 was over 7.00.

With `C[C@H](COCCC(=O)N1CCN(c2ccc(Cl)cn2)CC1)Oc1cn[nH]c(=O)c1C(F)(F)F` (single isomer, unassigned) [Example 539 Isomer D], the negative-log IC50 (pIC50) is 6.00 to 7.00.

The molecule `C[C@@H](COCCC(=O)N1CCN(c2ncc(Cl)cn2)CC1)Oc1cn[nH]c(=O)c1C(F)(F)F` (single isomer, unassigned) [Example 543 Isomer A] showed a pIC50 of over 7.00.

On to `C[C@@H](COc1cn[nH]c(=O)c1C(F)(F)F)OCCC(=O)N1CCN(c2ncc(Cl)cn2)CC1` (single isomer, unassigned) [Example 543 Isomer B], for which the pIC50 is over 7.00.

`C[C@H](COc1cn[nH]c(=O)c1C(F)(F)F)OCCC(=O)N1CCN(c2ncc(Cl)cn2)CC1` (single isomer, unassigned) [Example 543 Isomer C]: the pIC50 was over 7.00.

In turn, `C[C@@H](COCCC(=O)N1CCN(c2ncc(C(F)(F)F)cn2)CC1)Oc1cn[nH]c(=O)c1C(F)(F)F` (single isomer, unassigned) [Example 544 Isomer A] showed a pIC50 of over 7.00.
